Measured values from US4562211A, “Pharmaceutically active 2-substituted-1-(omega-aminoalkoxy)benzenes” (Mitsubishi Chemical Industries, Ltd., priority 1976, dated 1985).
Counter-ions that a name gives are not always drawn.

How the values were obtained:
[1] = tested on: neurological deficit as measured by traction test; experiment: CNS depressant activity: muscle relaxant action, traction test; format: in vivo; details: Mus musculus, po, mice
tremorine induced tremor = experiment: Central anticholinergic effect: antitremorine effect; format: in vivo; details: Mus musculus, po, mice
[2] = tested on: spontaneous motor activity; experiment: CNS depressant activity: spontaneous motor activity depression (ANIMEX apparatus); format: in vivo; details: Mus musculus, po, mice
[3] = Acute toxicity in mice, LD50 (Litchfield-Wilcoxon); details: mouse, in vivo, ip
Protocol: The compounds have been tested in mice for antidepressant, sedative, anticonvulsant and anticholinergic activity. The compounds were administered intraperitoneally and the activities of the compounds were compared with those of Amitriptyline.
LD50 was calculated by Litchfield-Wilcoxon method.

[4] = tested on: electroshock induced tonic extensor; experiment: Anticonvulsant activity: antagonism of electroshock induced tonic extensor; format: in vivo; details: Mus musculus, po; mice; p.o.; dose preventing 50% of response; read-out: Anti-Convulsant Activity ED50
[5] = tested on: reserpine (5 mg/kg i.p.) induced hypothermia; experiment: Antireserpine activity in mice (antagonism of reserpine induced hypothermia), relative to Amitriptyline; format: in vivo; details: Amitriptyline=1
Protocol: The 2-substituted-1-(omega-aminoalkoxy)benzenes and the acid addition salts thereof may be purified by recrystallization employing a suitable solvent such as alcohol-ether.
The compounds were administered intraperitoneally and the activities of the compounds were compared with those of Amitriptyline.

SMILES	LD50 [3] [mg/kg]	Antireserpine activity, Relative Potency [5]	also measured
CN(C)CCC=C1c2ccccc2CCc2ccccc21 [Amitriptyline, reference compound]	300	–	ED50 [1]: 40 mg/kg; ED50 (tremorine induced tremor): 11 mg/kg; ED50 [2]: 28 mg/kg; ED50 [4]: 19 mg/kg
CNCCCCOc1c(C)cccc1Cc1ccccc1 [No. 1, 2-(4-methylaminobutoxy)-3-methyldiphenylmethane hydrochloride]	500 to 700	0.56	–
Cc1cccc(Cc2ccccc2)c1OCCCCN(C)C [No. 2, 2-(4-dimethylaminobutoxy)-3-methyldiphenylmethane]	500 to 700	0.66	–
CNCCCCOc1ccccc1Cc1ccccc1O [No. 8, 2-(4-methylaminobutoxy)-2'-hydroxydiphenylmethane]	–	–	ED50 [1]: 390 mg/kg; ED50 (tremorine induced tremor): > 200 mg/kg; ED50 [2]: 175 mg/kg; ED50 [4]: 190 mg/kg
Cc1ccc(OCCCCN(C)C)c(Cc2ccccc2)c1 [compound 3]	500 to 700	0.70	–
CNCCCCOc1ccccc1Cc1ccc(C)cc1 [compound 4]	–	0.44	–
CNCCCCOc1ccccc1Cc1ccc(Cl)cc1 [compound 5]	–	0.44	–
COc1ccc(Cc2ccccc2OCCCCN(CCO)CCO)cc1 [compound 6]	–	0.44	–
CNCCCCOc1ccccc1Cc1ccccc1OC [compound 7]	600	0.85	–
CNCCCCOc1ccccc1Cc1ccccc1O [compound 8]	600 to 700	1.00	–
CN(C)CCCCOc1ccccc1Cc1ccccc1O [compound 9]	–	0.77	–
CCOc1ccccc1Oc1ccccc1OCCCCNC [compound 10]	–	0.90	–
CNCCCCOc1ccccc1Oc1ccccc1C [compound 11]	–	0.65	–
CNCCCOc1ccccc1Oc1ccccc1C [compound 12]	–	1.12	–
Cc1ccccc1Oc1ccccc1OCCCN(C)C [compound 13]	–	0.95	–
CCNCCCOc1ccccc1Oc1ccccc1C [compound 14]	–	0.46	–
CCN(CC)CCCOc1ccccc1Oc1ccccc1C [compound 15]	–	0.44	–
Cc1ccccc1Oc1ccccc1OCCCN1CCCC1 [compound 16]	–	0.42	–
